Experimental data taken from patent US20080214517A1, “Modulation of the Expression of Estrogen Receptors for the Prevention or Treatment of Heart Disease” (priority 2003, published 2008).

B1: PDGF-BB: platelet-derived growth factor-BB, agonist used to stimulate PSMC migration and MAPK phosphorylation (protein, UniProt P01127 82-190, looked up)
Platelet-derived growth …: SLGSLTIAEPAMIAECKTRTEVFEISRRLIDRTNANFLVWPPCVEVQRCSGCCNNRNVQCRPTQVQLRPVQVRKIEIVRKKPIFKKATVTLEDHLACKCETVAAARPVT

Assays:
[1] = test system: p38 MAPK phosphorylation; experiment: Western blot of p38 MAPK phosphorylation in PAEC; assay type: cell-based, porcine; conditions: 17βE, 30 minutes stimulation; vs PBS-treated PAEC
Procedure: (§1) FIG. 7: Contribution of ERα and ERβ on p42144 and p38 MAPK activation in PAEC. PAEC were seeded at 1×10^6 cells/100-mm culture plate and grown to confluence. Cells were treated either with antisense or scrambled oligomers as described in the methods. Cells were then treated with or without 17βE (10^−8 mol/L) for 5 minutes for p42/44 MAPK activation (A) or 30 minutes for p38 MAPK stimulation (B). Proteins were detected by Western blot analyses. Image densitometry results are given as relative expression (%) as compared to control PBS-treated cells.
(§2) The efficiency and specificity of our antisense oligomers to prevent the expression of targeted proteins were evaluated by Western blot analyses. Culture medium of confluent PAEC and PSMC (100-mm tissue culture plate) was removed, the cells were rinsed with Dulbecco's modified eagle medium (DMEM; Life Technologies Inc., Carlsbad, Calif.) and trypsinized (trypsine-EDTA; Life Technologies). Cells were resuspended in DMEM containing 5% of fetal bovine serum (FBS) (Hyclone Laboratories, Logan, Utah) and antibiotics (penicillin and streptomycin, Sigma, St-Louis, Mo.), and a cell count was obtained with a Coulter counter Z1 (Coulter Electronics, Luton, UK). […] Plates were incubated at 4° C. for 30 minutes and scraped, and the protein concentration was determined with a Bio-Rad protein assay kit (Bio-Rad, Hercules, Calif.). […]

[2] = test system: porcine aortic endothelial cells (PAEC); experiment: Chemotactic assay (modified Boyden chamber), PAEC migration; assay type: cell-based; conditions: 17βE 10^−8 mol/L, 5 hours, compared to cells treated with FBS 1%
Procedure: FIG. 6: Contribution of ERα and ERβ on PAEC migration. PAEC were trypsinized and resuspended in DMEM; 2.5×10^5 cells/well of a six-well tissue culture plate were stimulated with or without antisense oligomers as described in the methods. 2.5×10^4 cells were added in the higher compartment of the modified Boyden chamber apparatus with or without antisense oligomers, and the lower chamber was filled with DMEM 1% FBS, and antibiotics with or without 17βE (10^−8 mol/L). Five hours postincubation at 37° C., the migrated cells were fixed, stained and counted by using a microscope adapted to a digitized video camera. The values are represented as relative mean of migrating cells/mm^2 from 6 chambers for each treatment. *, P<0.05 as compared to unstimulated cells; t, P<0.05 as compared to cells treated with 17βE (10^−8 mol/L).
(§3) Cell migration was evaluated using a modified Boyden 48-well microchamber kit (NeuroProbe, Cabin John, Md.). Near confluent PAEC and PSMC were rinsed with DMEM and trypsinized. Cells were resuspended in DMEM, 5% FBS, and antibiotics, and a cell count was obtained. […] The filter was then mounted on a glass slide, and migrated cells were counted using a microscope adapted to a video camera to obtain a computer-digitized image. […]

[3] = local delivery following coronary angioplasty in pigs; cited from earlier work
[4] = test system: porcine aortic endothelial cells (PAEC); experiment: Mitogenic assay, PAEC proliferation; assay type: cell-based; conditions: 17βE 10^−8 mol/L, compared to cells treated with FBS 1%; 3 days
Procedure: FIG. 5: Contribution of ERα and ERβ on PAEC proliferation. PAEC were seeded at 1×10^4 cells/well and stimulated with or without antisense oligomers as described in the methods. Cells were then stimulated with or without 17βE (10^−8 mol/L) and a cell count achieved 72 hours post-treatment. The values are means of cell counts obtained from 6 wells for each treatment. *, P<0.05 as compared to day 0; †, P<0.05 as compared to control (1% FBS); ‡, P<0.05 as compared to cells treated with 17βE (10^−8 mol/L).
(§4) Confluent PAEC and PSMC were rinsed with DMEM and trypsinized. Cells were resuspended in 10 mL of DMEM, 5% FBS, and antibiotics, and a cell count was obtained by using a Coulter counter Z1. PAEC and PSMC were initially seeded at 1×10^4 cells/well of 24-well tissue culture plates stimulated for 24 hours in DMEM, 5% FBS, and antibiotics with or without antisense oligomers (10^−6 mol/L), and starved for 48 hours in DMEM, 0.1% FBS, and antibiotics with or without antisense oligomers (10^−6 mol/L daily) for Go synchronization. The cells were stimulated for 72 hours in DMEM, 1% FBS, antibiotics with or without antisense oligomers (10^−6 mol/L daily) and with or without of 17βE (10^−8 mol/L). After trypsinization, cell number was determined by using a Coulter counter Z1.

[5] = test system: porcine smooth muscle cells (PSMC); experiment: Chemotactic assay (modified Boyden chamber), PSMC migration; assay type: cell-based; conditions: PDGF-BB 10 ng/mL
Procedure: FIG. 3: Contribution of ERα and ERβ on PSMC migration. PSMC were trypsinized and resuspended in DMEM; 2.5×10^5 cells/well of a six-well tissue culture plate were stimulated with or without antisense oligomers as described in the methods. 2.5×10^4 cells were added in the higher compartment of the modified Boyden chamber apparatus with or without antisense oligomers, and the lower chamber was filled with DMEM 1% FBS, and antibiotics with or without PDGF-BB (10 ng/ml). Five hours postincubation at 37° C., the migrated cells were fixed, stained and counted by using a microscope adapted to a digitized video camera. The values are represented as relative mean of migrating cells from 6 chambers for each treatment. *, P<0.05 as compared unstimulated cells; †, P<0.05 as compared to cells treated with PDGF-BB; ‡, P<0.05 as compared to cells treated with 17βE (10^−8 mol/L).
as §3

[6] = test system: p38 MAPK phosphorylation; experiment: Western blot of p38 MAPK phosphorylation in PSMC; assay type: cell-based, porcine; conditions: PDGF-BB stimulation 30 minutes; 17βE 10^−8 mol/L 30-minute pretreatment
Procedure: (§5) FIG. 4: Contribution of ERα and ERβ on p42/44 and p38 MAPK activation in PSMC. PSMC were seeded at 1×10^6 cells/100-mm culture plate and grown to confluence. Cells were treated either with antisense or scrambled oligomers as described in the methods. Cells were then treated with or without 17βE (10^−8 mol/L) for 30 minutes and stimulated 5 minutes for p42/44 MAPK (A) or 30 minutes for p38 MAPK (B) with PDGF-BB. Proteins were detected by Western blot analyses. Image densitometry results are given as relative expression (%) as compared to control PBS-treated cells.
as §2

[7] = test system: porcine smooth muscle cells (PSMC); experiment: Mitogenic assay, PSMC proliferation; assay type: cell-based; conditions: 17βE (10^−8 mol/L); 72 hours
Procedure: FIG. 2: Contribution of ERα and ERβ on PSMC proliferation. PSMC were seeded at 1×10^4 cells/well and stimulated with or without antisense oligomers as described in the methods. Cells were then stimulated with or without 17βE (10^−8 mol/L) and a cell count achieved 72 hours post-treatment. The values are means of cell counts obtained from 6 wells for each treatment. *, P<0.05 as compared to day 0; t, P<0.05 as compared to control (1% FBS); *, P<0.05 as compared to cells treated with 17βE ([…]).
as §4

[8] = test system: p42/44 MAPK phosphorylation; experiment: Western blot of p42/44 MAPK phosphorylation in PAEC; assay type: cell-based, porcine; conditions: 17βE 10^−8 mol/L, 5 minutes; vs PBS-treated PAEC
Procedure: as §1, §2

[9] = test system: p42/44 MAPK phosphorylation; experiment: Western blot of p42/44 MAPK phosphorylation in PSMC; assay type: cell-based, porcine; conditions: PDGF-BB stimulation 5 minutes; 17βE 10^−8 mol/L 30-minute pretreatment
Procedure: as §5, §2

Molecule | increase of p38 MAPK phosphorylation in PAEC [1] | promotion of PAEC migration [2] | endothelial NO synthase (eNOS) expression (in words) [3] | neointimal formation (in words) [3] | reendothelialization process (in words) [3] | enhancement of PAEC proliferation [4] | inhibition of the chemotactic effect of PDGF-BB on PSMC (in words) ([5]; 17βE 10^−8 mol/L) | p38 MAPK phosphorylation in PSMC (in words) [6] | prevention of PSMC proliferation mediated by FBS 1% [7] | increase of p42/44 MAPK phosphorylation in PAEC [8] | p42/44 MAPK phosphorylation in PSMC (in words) [9] | increase of basal migration of PSMC ([5]; 5 hours, compared to cells treated with FBS 1%)
C[C@]12CC[C@@H]3c4ccc(O)cc4CC[C@H]3[C@@H]1CC[C@@H]2O [17βE, 17-beta-estradiol] | 254% | 363% | improving | reducing | improving | 123% | inhibited completely | reversed | 95% | 317% | reversed | 
B1 |  |  |  |  |  |  |  | increased |  |  | increased | 141%
